Test results taken from US9388195B2, “Heterocyclic compound” (Takeda Pharmaceutical Company Limited, priority 2010, dated 2016).
Structures can show the parent of a compound that is named as a salt. Where two headings read alike, the source gives them in different places.

Columns and labels:
[1] = system: human colorectal cancer cell Colo205; assay: Measurement of growth inhibitory activity on human colorectal cancer cell Colo205 (CellTiter-Glo); type: cell-based; conditions: COLO 205, 72 h, read-out: inhibitory rate (%) at 1 μM
Experimental: The growth inhibition of colorectal cancer cell Colo205 with the compound of the present invention can be measured as follows.
A cell suspension (100 μl) of human colorectal cancer cell Colo205 (purchased from ATCC) (3,000 cells/well) was plated in a 96 well plate, and cultured in a 5% carbon dioxide gas incubator at 37° C. for 1 day. Each 2 μM test compound solution was added by 100 μl and the cells were cultured for 3 days. CellTiter-Glo™ Luminescent Cell Viability Assay reagent (50 μl, Promega) was added to the 96 well plate, the luminescence level was measured by a luminometer and the residual ATP amount was taken as the cell amount. The luminescence level of a well free of cell plating was taken as a blank. The cell proliferation inhibitory rate (%) of the test compound was calculated by the following formula. Inhibitory rate(%)=(1−(luminescence level of test compound—blank)[…](luminescence level of control group—blank))×100

Cdc7/Dbf4 complex = molecular target: T1, Cdc7/Dbf4 complex (Homo sapiens, UniProt O00311); assay: Measurement of Cdc7 kinase inhibitory activity (Transcreener ADP HTRF assay); type: biochemical
T1 construct: Full-length Cdc7 co-expressed with full-length Dbf4; purchased Carna Biosciences (Kobe)
T1 sequence (O00311 whole entry): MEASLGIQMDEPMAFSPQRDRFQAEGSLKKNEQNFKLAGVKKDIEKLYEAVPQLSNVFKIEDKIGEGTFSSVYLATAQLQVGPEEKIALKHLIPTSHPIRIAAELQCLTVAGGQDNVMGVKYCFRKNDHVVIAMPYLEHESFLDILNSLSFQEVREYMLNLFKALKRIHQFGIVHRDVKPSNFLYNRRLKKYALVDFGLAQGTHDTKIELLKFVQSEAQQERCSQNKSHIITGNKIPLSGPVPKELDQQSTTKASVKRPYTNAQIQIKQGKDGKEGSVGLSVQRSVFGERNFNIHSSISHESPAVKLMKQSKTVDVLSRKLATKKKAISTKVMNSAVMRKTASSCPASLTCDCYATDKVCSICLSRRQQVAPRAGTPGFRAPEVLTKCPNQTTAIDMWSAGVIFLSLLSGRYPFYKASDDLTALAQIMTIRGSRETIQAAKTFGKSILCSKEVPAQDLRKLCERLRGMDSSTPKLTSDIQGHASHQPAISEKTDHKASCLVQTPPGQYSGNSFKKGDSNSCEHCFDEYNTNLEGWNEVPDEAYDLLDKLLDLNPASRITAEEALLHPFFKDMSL
T1 sequence (Q9UBU7 whole entry partner): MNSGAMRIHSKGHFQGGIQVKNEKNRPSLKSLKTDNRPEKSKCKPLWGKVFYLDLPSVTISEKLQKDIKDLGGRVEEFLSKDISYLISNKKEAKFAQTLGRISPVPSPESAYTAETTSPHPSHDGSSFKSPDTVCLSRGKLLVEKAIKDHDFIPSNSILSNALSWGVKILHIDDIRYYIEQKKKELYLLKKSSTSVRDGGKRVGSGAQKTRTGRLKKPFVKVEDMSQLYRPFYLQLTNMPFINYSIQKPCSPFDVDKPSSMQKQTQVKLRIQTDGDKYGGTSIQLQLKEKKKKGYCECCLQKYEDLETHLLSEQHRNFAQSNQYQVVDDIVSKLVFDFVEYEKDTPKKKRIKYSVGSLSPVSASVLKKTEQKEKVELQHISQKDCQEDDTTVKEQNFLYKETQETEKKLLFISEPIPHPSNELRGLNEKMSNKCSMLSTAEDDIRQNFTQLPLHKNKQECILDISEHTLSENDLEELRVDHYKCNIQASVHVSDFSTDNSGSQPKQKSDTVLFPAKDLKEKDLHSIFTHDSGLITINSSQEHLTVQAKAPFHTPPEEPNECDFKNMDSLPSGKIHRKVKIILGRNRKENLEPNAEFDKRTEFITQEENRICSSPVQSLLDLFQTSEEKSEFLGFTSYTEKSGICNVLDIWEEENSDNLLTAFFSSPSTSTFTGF
Experimental: Full-length Cdc7 co-expressed with full-length Dbf4 was purchased from Carna Biosciences (Kobe). The enzyme activity of Cdc7/Dbf4 complex was detected by homogeneous time-resolved fluorescence method Transcreener ADP assay (Cisbio Inc., MA, U.S.A.). […] Free ADP produced by ATP hydrolysis was detected by Eu^3+-Cryptate-labeled anti-ADP monoclonal antibody competitively with d2-labeled ADP, and the production amount thereof was measured. The obtained time-resolved fluorescence resonance energy transfer signal was measured by EnVision (Perkin Elmer Inc., MA, U.S.A.). The inhibitory rate (%) of the test compound to Cdc7 was calculated by the following formula. Inhibitory rate(%)=(1−(count of test compound-blank)[…](control-blank))×100
The count of the Cdc7/Dbf4 reaction mixture under compound-free conditions was taken as the control, and that under compound-free and Cdc7/Dbf4-free conditions was taken as the blank.

[2] = system: phosphorylated MCM2 (Ser40/Ser41); assay: Measurement of MCM2 phosphorylation inhibitory activity in human colorectal cancer cell Colo205 (Western blot); type: cell-based; conditions: read-out: inhibitory rate (%) at 1 μM
Experimental: The MCM2 phosphorylation suppressive action of the compound of the present invention in human colorectal cancer cell Colo205 can be measured as follows. A cell suspension (500 μl) of human colorectal cancer cell Colo205 (purchased from ATCC) (50,000 cells/well) was plated in a 24 well plate, and cultured in a 5% carbon dioxide gas incubator at 37° C. for 1 day. […] The plate was washed with PBS, the cells were lysed in Laemmli Sample Buffer (BioRad), and cell lysate was treated at 95° C. for 5 min.

[3] = system: human colorectal cancer cell Colo205; assay: Measurement of antitumor activity in human colorectal cancer cell Colo205 cancer bearing mouse; type: in vivo; conditions: Colo205 tumor growth ratio, mice
Experimental: Tumor volume=long diameter×short diameter×short diameter×(½) Mice having an engrafted tumor volume of about 200 mm^3 were selected, and 5 mice per group were used for the experiment. […] The tumor diameter was measured one day before the start of the administration and the next day of the completion of the administration and the tumor volume was calculated. The tumor growth ratio of the test compound administration group as compared to that of the control administration group was taken as T/C(%) and calculated by the following formula. T/C(%)=(tumor volume of test compound administration group after completion of administration−tumor volume of test compound administration group one day before start of administration)/(tumor volume of control administration group after completion of administration−tumor volume of control administration group one day before start of administration))×100

[4] = system: phosphorylated MCM2 (Ser40/Ser41); assay: animal or person; conditions: Mus musculus, COLO 205, po, 4 h, read-out: inhibitory rate (%)
Experimental: Human colorectal cancer cell Colo205 was suspended in 50% Matrigel solution, and transplanted into 6- to 7-week-old female BALB/c mice (CLEA Japan, Inc.) at 5.0×10^6 cells by subcutaneous injection. The diameter of the tumor engrafted in 7 to 14 days from the transplantation was measured, and the tumor volume was calculated by the following formula. Tumor volume=long diameter×short diameter×short diameter×(½)
A suspension of the test compound in 0.5% methylcellulose solution (Wako Pure Chemical Industries, Ltd.) was orally administered at a dose shown in the Table to mice having a tumor volume of 150-600 mm^3. The tumor was removed under ether anesthesia at 4 hr after administration of the test compound, and homogenized in Cell Lysis Buffer (Cell Signaling). Using BCA Protein assay kit (Thermo Scientific), the protein in the tumor lysate was quantified, and the protein amount was adjusted. The above-mentioned protein solution was treated with Laemmli Sample Buffer (BioRad) at 95° C. for 5 min.
Then, SDS-PAGE was performed and the protein was transferred onto a PVDF membrane by using iBlot™ gel transfer system (Invitrogen). […] The membrane was washed in the same manner as above, chemical luminescence of antibody-labeled phosphorylated MCM2 protein using SuperSignal West FemtoMaximum Sensitivity Substrate (Pierce Biotechnology) was detected by lumino image analyzer LAS-1000 (Fuji Film).
Using the anti-MCM2 antibody (Santa Cruzu Biotechnology, sc-9839) and HRP-labeled goat IgG polyclonal antibody (Santa Cruzu Biotechnology, sc-2020) and in the same manner as above, the MCM2 protein was detected.
The phosphorylated MCM2 specific activity of each sample was calculated by the following formula. Phosphorylated MCM2 specific activity=(phosphorylated MCM2 luminescence level-background)+(MCM2 luminescence level-background)
The phosphorylated MCM2 protein inhibitory rate (%) of the test compound was calculated by the following formula and shown in Table. […]

[5] = read-out: inhibitory rate (%) at 1 μM, test compound 1 μM, Cdc7/Dbf4, 1.0 μm ATP, 10 μg/ml MCM2
[6] = test compound 1 μM, Cdc7/Dbf4, 1.0 μm ATP, 10 μg/ml MCM2, read-out: inhibitory rate (%) at 1 μM
[7] = cell proliferation, Colo205, 1 μM, cultured for 3 days
[8] = COLO 205, phosphorylated MCM2 protein, Colo205 cells, 1 μM, 8 hr
[9] = test compound 1 μM, Cdc7/Dbf4, 1.0 μm ATP, 10 μg/ml MCM2, dihydrochloride
[10] = 100 mg/kg orally twice a day for 14 days

Compound | inhibition at 1 µM [1] [%] | inhibition at 1 µM (Cdc7/Dbf4 complex; [5]) [%] | inhibition at 1 µM ([2]; COLO 205, 8 h) [%] | inhibition at 1 µM (Cdc7/Dbf4 complex; [6]) [%] | also measured
Cc1[nH]ncc1-c1cc2nc(C34CCC(CC3)N4)[nH]c(=O)c2s1 [Example 116, 2-(7-azabicyclo[2.2.1]hept-1-yl)-6-(5-methyl-1H-pyrazol-4-yl)thieno[3,2-d]pyrimidin-4 (3H)-one monohydrochloride] | 60.5 | 102 | 98.7 | – | –
Cc1[nH]ncc1-c1cc2nc([C@@H]3CC4CCN3CC4)[nH]c(=O)c2s1 [Example 170, 2-[(2S)-1-azabicyclo[2.2.2]oct-2-yl]-6-(5-methyl-1H-pyrazol-4-yl)thieno[3,2-d]pyrimidin-4 (3H)-one trifluoroacetate] | 69.7 | – | 97.3 | 95 | –
Cc1[nH]ncc1-c1cc2nc([C@H]3N[C@@H]4CC[C@H]3C4)[nH]c(=O)c2s1 [Example 91, 2-[(1R,3S,4S)-2-azabicyclo[2.2.1]heptan-3-yl]-6-(5-methyl-1H-pyrazol-4-yl)thieno[3,2-d]pyrimidin-4 (3H)-one] | – | – | – | 106 | inhibition at 1 µM [1, 7]: 71.7%; inhibition at 1 µM [2, 8]: 98.4%
Cc1[nH]ncc1-c1cc2nc([C@@H]3CCCN3)[nH]c(=O)c2s1 [Example 37, 6-(5-methyl-1H-pyrazol-4-yl)-2-[(2S)-pyrrolidin-2-yl]thieno[3,2-d]pyrimidin-4 (3H)-one dihydrochloride] | 75.3 | – | 98.4 | – | inhibitory rate (%) at 1 μM (Cdc7/Dbf4 complex; [9]): 102.6%
Cc1[nH]ncc1-c1cc2nc([C@H]3NC4CC3[C@H](F)C4)[nH]c(=O)c2s1 (single isomer, unassigned) [Example 160, 2-[(1R,3S,4R,5R) or (1S,3S,4S,5R)-5-fluoro-2-azabicyclo[2.2.1]hept-3-yl]-6-(5-methyl-1H-pyrazol-4-yl)thieno[3,2-d]pyrimidin-4 (3H)-one dihydrochloride] | – | – | – | 104 | inhibition at 1 µM [1, 7]: 73.3%; inhibition at 1 µM [2, 8]: 95%
Cc1[nH]ncc1-c1cc2nc([C@@H]3CC=CCN3)[nH]c(=O)c2s1 [Example 145, 6-(5-methyl-1H-pyrazol-4-yl)-2-[(2S)-1,2,3,6-tetrahydropyridin-2-yl]thieno[3,2-d]pyrimidin-4 (3H)-one dihydrochloride] | 78.5 | 126 | 95.8 | – | T/C (%) [3, 10]: −4.7%; inhibition at 100 mg/kg [4]: 68.9%
Cc1[nH]ncc1-c1cc2nc([C@H]3NC4CC3[C@H](F)C4)[nH]c(=O)c2s1 (single isomer, unassigned) [Example 175, 2-[(1R,3S,4R,5R) or (1S,3S,4S,5R)-5-fluoro-2-azabicyclo[2.2.1]hept-3-yl]-6-(5-methyl-1H-pyrazol-4-yl)thieno[3,2-d]pyrimidin-4 (3H)-one hydrochloride] | – | – | – | – | T/C (%) ([3]; 50 mg/kg orally twice a day for 14 days): 40.3%; inhibitory rate (%) at 1 μM (Cdc7/Dbf4 complex; test compound 1 μM, Cdc7/Dbf4, 1.0 μm ATP, 10 μg/ml MCM2, hydrochloride): 105%
Cc1[nH]ncc1-c1cc2nc(-c3ccccc3Cl)[nH]c(=O)c2s1 [Example 1, 2-(2-chlorophenyl)-6-(5-methyl-1H-pyrazol-4-yl)thieno[3,2-d]pyrimidin-4 (3H)-one] | – | – | – | 97 | –
Cc1[nH]ncc1-c1cc2nc([C@H]3NCC[C@@H]3C)[nH]c(=O)c2s1 [Example 140, 6-(5-methyl-1H-pyrazol-4-yl)-2-[(2S,3S)-3-methylpyrrolidin-2-yl]thieno[3,2-d]pyrimidin-4 (3H)-one dihydrochloride] | – | – | – | – | inhibition at 1 µM (Cdc7/Dbf4 complex; read-out: inhibitory rate (%) at 1 μM): 100%
Cc1[nH]ncc1-c1cc2nc([C@H]3NC[C@H]4C[C@H]43)[nH]c(=O)c2s1 (relative stereo) [Example 87, 2-[(1R*,2S*,5S*)-3-azabicyclo[3.1.0]hex-2-yl]-6-(5-methyl-1H-pyrazol-4-yl)thieno[3,2-d]pyrimidin-4 (3H)-one dihydrochloride] | – | – | – | 107 | –
Cc1[nH]ncc1-c1cc2nc([C@@H]3NC[C@@H]4C[C@@H]43)[nH]c(=O)c2s1 [Example 112, 2-[(1S,2R,5R)-3-azabicyclo[3.1.0]hex-2-yl]-6-(5-methyl-1H-pyrazol-4-yl)thieno[3,2-d]pyrimidin-4 (3H)-one dihydrochloride] | – | – | – | 105 | –
Cc1[nH]ncc1-c1cc2nc([C@H]3CC=CCN3)[nH]c(=O)c2s1 [Example 146, 6-(5-methyl-1H-pyrazol-4-yl)-2-[(2R)-1,2,3,6-tetrahydropyridin-2-yl]thieno[3,2-d]pyrimidin-4 (3H)-one dihydrochloride] | – | 108 | – | – | –
Cc1[nH]ncc1-c1cc2nc(C3CCCCN3)[nH]c(=O)c2s1 (stereo not shown) [Example 71, 6-(5-methyl-1H-pyrazol-4-yl)-2-(piperidin-2-yl)thieno[3,2-d]pyrimidin-4 (3H)-one dihydrochloride] | – | 109 | – | – | –
Cc1[nH]ncc1-c1cc2nc([C@@H]3CCCCN3)[nH]c(=O)c2s1 [Example 83, 6-(5-methyl-1H-pyrazol-4-yl)-2-[(2S)-piperidin-2-yl]thieno[3,2-d]pyrimidin-4 (3H)-one dihydrochloride] | 76.6 | – | 97.6 | – | T/C (%) [3, 10]: 5.7%; inhibition at 100 mg/kg [4]: 71.8%; inhibitory rate (%) at 1 μM (Cdc7/Dbf4 complex; [9]): 125.5%
Cc1[nH]ncc1-c1cc2nc(CN3CCCC3)[nH]c(=O)c2s1 [Example 2, 6-(5-methyl-1H-pyrazol-4-yl)-2-(pyrrolidin-1-ylmethyl)thieno[3,2-d]pyrimidin-4 (3H)-one] | 44.1 | 93.8 | 90.4 | – | –
Cc1[nH]ncc1-c1cc2nc([C@@H]3CCCN3)[nH]c(=O)c2s1 [Example 11, 6-(5-methyl-1H-pyrazol-4-yl)-2-[(2S)-pyrrolidin-2-yl]thieno[3,2-d]pyrimidin-4 (3H)-one monotrifluoroacetate] | – | 103 | – | – | –
O=c1[nH]c([C@@H]2CCCCN2)nc2cc(-c3cn[nH]c3C(F)(F)F)sc12 [Example 161, 2-[(2S)-piperidin-2-yl]-6-[5-(trifluoromethyl)-1H-pyrazol-4-yl]thieno[3,2-d]pyrimidin-4 (3H)-one hydrochloride] | 78.6 | 102 | 96.2 | – | T/C (%) [3, 10]: −3.6%; inhibition at 100 mg/kg [4]: 80.9%
Cc1[nH]ncc1-c1cc2nc(C3COCCN3)[nH]c(=O)c2s1 (stereo not shown) [Example 72, 6-(5-methyl-1H-pyrazol-4-yl)-2-(morpholin-3-yl)thieno[3,2-d]pyrimidin-4 (3H)-one dihydrochloride] | – | – | – | 102 | –
